Non-standard residues stand in square brackets, D forms with d. Residues, ends and D or L forms follow the SMILES beside them. *: point of attachment. Cha = N[C@@H](CC1CCCCC1)C(=O)O; dCha = N[C@H](CC1CCCCC1)C(=O)O; dChg = N[C@@H](C(=O)O)C1CCCCC1; pNA = O=[N+]([O-])c1ccc(N*)cc1; dNle = CCCC[C@@H](N)C(=O)O; Pip = O=C(O)[C@@H]1CCCCN1; Nle = CCCC[C@H](N)C(=O)O; Abu = CC[C@H](N)C(=O)O
Assays:
Assay type in all cases: biochemical
[1] = target: T1, Humanplasmin (Homo sapiens, UniProt P00747); assay: Cleavage of chromogenic substrate by human plasmin; conditions: 1 CU-Einheit human plasmin, per min; Substratkonzentration 2 x 10^-4 molar
T1 construct: da bei der Aktivierung aus 1 Molekül Plasminogen 1 Molekül Plasmin entsteht
T1 sequence (P00747 581-810 limits assumed): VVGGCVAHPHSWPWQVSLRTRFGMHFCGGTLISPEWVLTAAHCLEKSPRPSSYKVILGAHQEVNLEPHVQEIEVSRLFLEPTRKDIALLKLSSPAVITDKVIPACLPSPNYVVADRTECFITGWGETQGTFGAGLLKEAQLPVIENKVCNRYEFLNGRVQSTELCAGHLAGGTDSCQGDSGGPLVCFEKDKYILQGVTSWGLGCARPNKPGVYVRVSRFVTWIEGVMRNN
T1 sequence (P00747 97-580 partner limits assumed): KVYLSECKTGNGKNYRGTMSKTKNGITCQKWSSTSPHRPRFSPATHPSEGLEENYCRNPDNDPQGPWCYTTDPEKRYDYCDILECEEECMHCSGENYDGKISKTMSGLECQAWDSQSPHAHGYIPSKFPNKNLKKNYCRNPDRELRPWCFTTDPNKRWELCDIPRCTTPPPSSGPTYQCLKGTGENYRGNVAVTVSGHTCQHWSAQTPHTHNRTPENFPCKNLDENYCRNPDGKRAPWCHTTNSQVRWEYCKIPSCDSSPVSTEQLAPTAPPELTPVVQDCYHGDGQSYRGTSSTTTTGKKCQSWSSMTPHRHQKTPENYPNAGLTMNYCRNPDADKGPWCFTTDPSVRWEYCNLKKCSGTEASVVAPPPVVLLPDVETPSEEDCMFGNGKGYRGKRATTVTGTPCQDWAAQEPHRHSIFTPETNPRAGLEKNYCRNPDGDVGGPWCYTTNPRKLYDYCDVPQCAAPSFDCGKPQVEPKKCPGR
Description: 3. Bestimmung von Plasmin:
Man mischt 1,7 ml TRIS-Imidazol-Puffer (pH 7,5, Ionenstärke 0,2) bei 37°C mit 0,1 ml einer Lösung von Plasmin in 25%igem Glycerin und inkubiert die Mischung während 1 Min. bei 37°C. Dann gibt man der Mischung 0,2 ml einer wässrigen 2 x 10^-3 molaren Substxatlösung von 37°C zu und durchmischt das Ganze schnell. Man ermittelt dann kontinuierlich die pro Zeiteinheit aus dem Substrat freigesetzte Menge des Spaltproduktes R-NH2. Aus dem pro Min. ermittelten Wert berechnet man dann die Plasminaktivität pro ml Probe in mU nach der folgenden Formel: [formula] • ΔE = pro Min. freigesetzte Menge des Spaltproduktes • V = Totalvolumen des Testansatzes • v = Volumen der Probe • = Extinktionskoeffizient dividiert durch 1000
(§1) Bei der Messung des durch die enzymatische Hydrolyse des Substrates gebildeten Spaltproduktes RrNH2 geht man von der Voraussetzung aus, dass das Spaltprodukt ein UV-Spektrum besitzt, das von demjenigen des Substrates verschieden und in Richtung höherer Wellenlängen verschoben ist. Die Absorption des Substrates bei 405 nm ist praktisch Null. p-Nitroanilin als Spaltprodukt weist ein Absorptionsmaximum bei 380 nm und einen molaren Extinktionskoeffizienten von 13'200 auf. Bei 405 nm ist der Extinktionskoeffizient nur wenig niedriger, d.h. […] Der Grad der enzymatischen Hydrolyse des Substrates, welcher der Menge des abgespaltenen p-Nitroanilins proportional ist, lässt sich durch spektrophotometrische Messung bei 405 nm bestimmen. Auch bei Anwesenheit eines Ueberschusses an Substrat wird die Messung bei 405 nm nicht gestört.
(§2) Bei den Substraten, die als chromogene Gruppe eine 2-Naphthylamino-, 4-Methoxy-2-naphthylamino-, 4-Methyl-cumaryl-(7)-amino- oder 1,3-Di(methoxycarbonyl)-phenyl-(5)-amino-Gruppe enthalten, wird die Menge des Spaltproduktes R-NH2 durch Fluoreszenzspektrophotometrie gemessen. In einem aus Enzym, Puffer und Substrat bestehenden Testsystem misst man kontinuierlich das energieärmere emittierte Licht bei 400-470 nm, nachdem man das gebildete fluoreszierende Spaltprodukt mit energiereicherem Licht erregt hat. Die pro Zeiteinheit gebildete Menge Spaltprodukt ist ein Mass für die vorhandene Enzymaktivität. 1 µMol Spaltprodukt pro Minute entspricht definitionsgemäss 1 Enzym-Einheit, bezogen auf ein gegebenes Substrat.

[2] = target: T2, Submandibularis-Kallikrein (Homo sapiens, UniProt P06870); assay: Cleavage of chromogenic substrate by submandibular (glandular) kallikrein in human sputum; conditions: 1 ml human sputum, per min; Substratkonzentration 2 x 10^-4 molar
T2 construct: Man mischt 0,5 ml Sputum mit 2 ml TRIS-Imidazol-Puffer; from tissue; host or cells: human sputum
T2 sequence (P06870 25-262): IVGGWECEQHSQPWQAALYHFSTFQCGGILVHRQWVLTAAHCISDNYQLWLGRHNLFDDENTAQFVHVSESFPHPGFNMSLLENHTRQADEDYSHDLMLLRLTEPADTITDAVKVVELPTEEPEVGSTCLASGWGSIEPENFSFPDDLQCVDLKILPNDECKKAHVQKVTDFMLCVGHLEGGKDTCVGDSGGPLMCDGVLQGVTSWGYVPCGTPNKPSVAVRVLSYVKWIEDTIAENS
Description: 2. Bestimmung des Glandulärkallikreins im Sputum: • Man mischt 0,5 ml Sputum mit 2 ml TRIS-Imidazol-Puffer (Ionenstärke 1,0) und präinkubiert die Mischung 5 Min. bei 37°C. Das Inkubat wird zentrifugiert. In eine Testküvette wird 1,5 ml dest. H2O von 37°C vorgelegt und mit 0,25 ml des Zentrifugats versetzt. Die Komponenten werden gut gemischt. Dann wird 0,2 ml 2 x 10-^3 molare wässrige Substratlösung zugesetzt und gemischt. Dann wird bei 405 nm die Extinktions- änderung kontinuierlich mittels eines Schreibers während 5-10 Min. verfolgt. Aus dem ermittelten Δ OD pro Min. wird mittels der nachstehenden Formel die Kallikreinaktivität pro ml Sputum in mU errechnet: [formula] • F = 5 • V = 1,95 • v = 0,25 • 1 U (Einheit) = Enzymmenge, die während 1 Min. 1 µMol Substrat unter optimalen oder sonst festgelegten Bedingungen in Bezug auf pH, Ionenstärke, Temperatur und Substratkonzentration zu spalten vermag
as §1, with “gestört. […]” for “gestört.”

[3] = target: T3, Humanthrombin (Homo sapiens, UniProt P00734); assay: Cleavage of chromogenic substrate by human NIH thrombin; conditions: 1 NIH-Einheit human thrombin, per min; Substratkonzentration 2 x 10^-4 molar
T3 construct: Humanplasmin und hu-manem NIH-Thrombin
Excerpt: as §1, §2

[4] = target: T4, Urinkallikrein (Homo sapiens, UniProt P06870); assay: Cleavage of chromogenic substrate by urinary kallikrein in human urine; conditions: 1 ml human urine (pooled morning urine of healthy persons), per min; Substratkonzentration 2 x 10^-4 molar
T4 construct: 1 ml Urin und 1 ml TRIS-Imidazol-Puffer mit pH 7,9; from tissue; host or cells: human urine
T4 sequence (P06870 25-262): as above
Description: 1. Bestimmung von Urinkallikrein.
1 ml Urin und 1 ml TRIS-Imidazol-Puffer mit pH 7,9 und Ionenstärke 1,0 werden 5 Min. bei 37°C inkubiert undcänn zentrifugiert, um Sedimente zu entfernen.
In einer-Plastikküvette werden 1,4 ml dest. H20 von 37°C und 0,4 ml des Zentrifugats gut gemischt. Zu dieser Mischung gibt man 0,2 ml einer 2 x 10^-3 molaren wässrigen Substratlösung und durchmischt die Komponenten schnell. Dieses Gemisch wird genau 15 Min. bei 37°C inkubiert. Dann wird dem Reaktionsgemisch 0,2 ml Eisessig zugemischt, um die Enzymreaktion zu unterbrechen. Zur Farbmessung verwendet man eine Vergleichsprobe (Blindprobe), die aus den gleichen Komponenten zusammengesetzt ist, wobei jedoch der Eisessig vor Zugabe des Substrates zugesetzt wird, um die Enzymreaktion zu verhindern. Dann wird bei 405 nm photometrisch oder spektrophotometrisch die Menge der gebildeten farbigen Verbindung RNH 2 aus der Differenz zwischen der Blindprobe und der zu bestimmenden Probe ermittelt. Aus dem ermittelten Wert wird die Urinkallikreinaktivität im Urin nach der folgenden Formel berechnet: [formula] • Δ OD = Zunahme der optischen Dichte bei 405 nm während 15 Min. • V = Totalvolumen des Bestimmungsansatzes = 2,2 ml • 1000 = Umrechnungsfaktor zur Umwandlung von U in mU • F = Verdünnungsfaktor des Urins (2) • v = Volumen der Probe = 0,4 ml • ε = Extinktionskoeffizient dividiert durch 1000 = 10,4
Bei der oben beschriebenen Bestimmungsmethode misst man somit die Summe der Aktivitäten von Urinkallikrein und Urokinase. Um die genaue Urinkallikreinaktivität zu erhalten, muss man die Urokinaseaktivität abziehen, welche dadurch bestimmt werden kann, dass man in einem Vergleichsversuch durch Zugabe von 0,075 Einheiten Trypsininhibitor (Trypsininhibitor aus Rinderlunge) pro ml Puffer die Urinkallikreinaktivität vollständig hemmt und nur die Urokinaseaktivität misst.
as §1, §2

## N=C(N)NCCC[C@H](NC(=O)[C@H](Cc1ccccc1)NC(=O)[C@H](N)CC1CCCCC1)C(=O)Nc1ccc([N+](=O)[O-])cc1 [Beispiel 64, 2HBr.H-D-CHA-Phe-Arg-pNA] (H-[dCha]-Phe-Arg-pNA)
[1]
  Menge des durch 1 CU-Einheit Humanplasmin pro Min. freigesetzten Spaltproduktes R-NH2 in Nanomol (Humanplasmin): 1261 Nanomol
[2]
  Menge des durch 1 ml Humansputum pro Min. freigesetzten Spaltproduktes R-NH2 in Nanomol (Submandibularis-Kallikrein): 9,7 Nanomol
[3]
  Menge des durch 1 NIH-Einheit Thrombin pro Min. freigesetzten Spaltproduktes R-NH2 in Nanomol (Humanthrombin): 25,8 Nanomol
[4]
  Menge des durch 1 ml Humanurin pro Min. freigesetzten Spaltproduktes R-NH2 in Nanomol (Urinkallikrein): 0,5 Nanomol

## N=C(N)NCCC[C@H](NC(=O)[C@@H]1CCCN1C(=O)[C@H](N)C1CCCCC1)C(=O)Nc1ccc([N+](=O)[O-])cc1 [Beispiel 27, 2HBr.H-D-CHG-Pro-Arg-pNA] (H-[dChg]-Pro-Arg-pNA)
[1]
  Menge des durch 1 CU-Einheit Humanplasmin pro Min. freigesetzten Spaltproduktes R-NH2 in Nanomol (Humanplasmin): 511 Nanomol
[2]
  Menge des durch 1 ml Humansputum pro Min. freigesetzten Spaltproduktes R-NH2 in Nanomol (Submandibularis-Kallikrein): 12,9 Nanomol
[3]
  Menge des durch 1 NIH-Einheit Thrombin pro Min. freigesetzten Spaltproduktes R-NH2 in Nanomol (Humanthrombin): 96,3 Nanomol
[4]
  Menge des durch 1 ml Humanurin pro Min. freigesetzten Spaltproduktes R-NH2 in Nanomol (Urinkallikrein): 0,33 Nanomol

## CC[C@H](NC(=O)[C@H](N)C1CCCCC1)C(=O)N[C@@H](CCCNC(=N)N)C(=O)Nc1ccc([N+](=O)[O-])cc1 [Beispiel 75, 2HBr.H-D-CHG-But-Arg-pNA] (H-[dChg]-[Abu]-Arg-pNA)
[1]
  Menge des durch 1 CU-Einheit Humanplasmin pro Min. freigesetzten Spaltproduktes R-NH2 in Nanomol (Humanplasmin): 439 Nanomol
[2]
  Menge des durch 1 ml Humansputum pro Min. freigesetzten Spaltproduktes R-NH2 in Nanomol (Submandibularis-Kallikrein): 14,5 Nanomol
[3]
  Menge des durch 1 NIH-Einheit Thrombin pro Min. freigesetzten Spaltproduktes R-NH2 in Nanomol (Humanthrombin): 102,9 Nanomol
[4]
  Menge des durch 1 ml Humanurin pro Min. freigesetzten Spaltproduktes R-NH2 in Nanomol (Urinkallikrein): 0,51 Nanomol

## CC(C)[C@@H](N)C(=O)N[C@@H](CC1CCCCC1)C(=O)N[C@@H](CCCCN)C(=O)Nc1ccc([N+](=O)[O-])cc1 [Beispiel 14, 2HBr.H-D-Val-CHA-Lys-pNA] (H-[dV]-[Cha]-Lys-pNA)
[1]
  Menge des durch 1 CU-Einheit Humanplasmin pro Min. freigesetzten Spaltproduktes R-NH2 in Nanomol (Humanplasmin): 505 Nanomol
[2]
  Menge des durch 1 ml Humansputum pro Min. freigesetzten Spaltproduktes R-NH2 in Nanomol (Submandibularis-Kallikrein): 6,7 Nanomol
[3]
  Menge des durch 1 NIH-Einheit Thrombin pro Min. freigesetzten Spaltproduktes R-NH2 in Nanomol (Humanthrombin): 0,35 Nanomol
[4]
  Menge des durch 1 ml Humanurin pro Min. freigesetzten Spaltproduktes R-NH2 in Nanomol (Urinkallikrein): 1,02 Nanomol

## CC[C@H](NC(=O)[C@H](N)CC1CCCCC1)C(=O)N[C@@H](CCCNC(=N)N)C(=O)Nc1ccc([N+](=O)[O-])cc1 [Beispiel 76, 2HBr.H-D-CHA-But-Arg-pNA] (H-[dCha]-[Abu]-Arg-pNA)
[1]
  Menge des durch 1 CU-Einheit Humanplasmin pro Min. freigesetzten Spaltproduktes R-NH2 in Nanomol (Humanplasmin): 478 Nanomol
[2]
  Menge des durch 1 ml Humansputum pro Min. freigesetzten Spaltproduktes R-NH2 in Nanomol (Submandibularis-Kallikrein): 18,1 Nanomol
[3]
  Menge des durch 1 NIH-Einheit Thrombin pro Min. freigesetzten Spaltproduktes R-NH2 in Nanomol (Humanthrombin): 108,9 Nanomol
[4]
  Menge des durch 1 ml Humanurin pro Min. freigesetzten Spaltproduktes R-NH2 in Nanomol (Urinkallikrein): 0,51 Nanomol

## N=C(N)NCCC[C@H](NC(=O)[C@H](Cc1ccccc1)NC(=O)[C@H](N)C1CCCCC1)C(=O)Nc1ccc([N+](=O)[O-])cc1 [Beispiel 16, 2HBr.H-D-CHG-Phe-Arg-pNA] (H-[dChg]-Phe-Arg-pNA)
[1]
  Menge des durch 1 CU-Einheit Humanplasmin pro Min. freigesetzten Spaltproduktes R-NH2 in Nanomol (Humanplasmin): 1200 Nanomol
[2]
  Menge des durch 1 ml Humansputum pro Min. freigesetzten Spaltproduktes R-NH2 in Nanomol (Submandibularis-Kallikrein): 32,2 Nanomol
[3]
  Menge des durch 1 NIH-Einheit Thrombin pro Min. freigesetzten Spaltproduktes R-NH2 in Nanomol (Humanthrombin): 17,1 Nanomol
[4]
  Menge des durch 1 ml Humanurin pro Min. freigesetzten Spaltproduktes R-NH2 in Nanomol (Urinkallikrein): 3,31 Nanomol

## N=C(N)NCCC[C@H](NC(=O)[C@@H]1CCCCN1C(=O)[C@H](N)C1CCCCC1)C(=O)Nc1ccc([N+](=O)[O-])cc1 [Beispiel 65, 2HBr.H-D-CHG-Pip-Arg-pNA] (H-[dChg]-[Pip]-Arg-pNA)
[1]
  Menge des durch 1 CU-Einheit Humanplasmin pro Min. freigesetzten Spaltproduktes R-NH2 in Nanomol (Humanplasmin): 259 Nanomol
[2]
  Menge des durch 1 ml Humansputum pro Min. freigesetzten Spaltproduktes R-NH2 in Nanomol (Submandibularis-Kallikrein): 14,2 Nanomol
[3]
  Menge des durch 1 NIH-Einheit Thrombin pro Min. freigesetzten Spaltproduktes R-NH2 in Nanomol (Humanthrombin): 142,5 Nanomol
[4]
  Menge des durch 1 ml Humanurin pro Min. freigesetzten Spaltproduktes R-NH2 in Nanomol (Urinkallikrein): 1,92 Nanomol

## CCCC[C@H](NC(=O)[C@H](N)C1CCCCC1)C(=O)N[C@@H](CCCNC(=N)N)C(=O)Nc1ccc([N+](=O)[O-])cc1 [Beispiel 67, 2HBr.H-D-CHG-Nleu-Arg-pNA] (H-[dChg]-[Nle]-Arg-pNA)
[1]
  Menge des durch 1 CU-Einheit Humanplasmin pro Min. freigesetzten Spaltproduktes R-NH2 in Nanomol (Humanplasmin): 739 Nanomol
[2]
  Menge des durch 1 ml Humansputum pro Min. freigesetzten Spaltproduktes R-NH2 in Nanomol (Submandibularis-Kallikrein): 13,5 Nanomol
[3]
  Menge des durch 1 NIH-Einheit Thrombin pro Min. freigesetzten Spaltproduktes R-NH2 in Nanomol (Humanthrombin): 41,0 Nanomol
[4]
  Menge des durch 1 ml Humanurin pro Min. freigesetzten Spaltproduktes R-NH2 in Nanomol (Urinkallikrein): 0,53 Nanomol

## CCCC[C@H](NC(=O)[C@H](N)CC1CCCCC1)C(=O)N[C@@H](CCCNC(=N)N)C(=O)Nc1ccc([N+](=O)[O-])cc1 [Beispiel 68, 2HBr.H-D-CHA-Nleu-Arg-pNA] (H-[dCha]-[Nle]-Arg-pNA)
[1]
  Menge des durch 1 CU-Einheit Humanplasmin pro Min. freigesetzten Spaltproduktes R-NH2 in Nanomol (Humanplasmin): 899 Nanomol
[2]
  Menge des durch 1 ml Humansputum pro Min. freigesetzten Spaltproduktes R-NH2 in Nanomol (Submandibularis-Kallikrein): 15,0 Nanomol
[3]
  Menge des durch 1 NIH-Einheit Thrombin pro Min. freigesetzten Spaltproduktes R-NH2 in Nanomol (Humanthrombin): 77,6 Nanomol
[4]
  Menge des durch 1 ml Humanurin pro Min. freigesetzten Spaltproduktes R-NH2 in Nanomol (Urinkallikrein): 0,45 Nanomol

## N=C(N)NCCC[C@H](NC(=O)[C@H](Cc1ccc(O)cc1)NC(=O)[C@H](N)CC1CCCCC1)C(=O)Nc1ccc([N+](=O)[O-])cc1 [Beispiel 43, 2HBr.H-D-CHA-Tyr-Arg-pNA] (H-[dCha]-Tyr-Arg-pNA)
[1]
  Menge des durch 1 CU-Einheit Humanplasmin pro Min. freigesetzten Spaltproduktes R-NH2 in Nanomol (Humanplasmin): 1407 Nanomol
[2]
  Menge des durch 1 ml Humansputum pro Min. freigesetzten Spaltproduktes R-NH2 in Nanomol (Submandibularis-Kallikrein): 5,2 Nanomol
[3]
  Menge des durch 1 NIH-Einheit Thrombin pro Min. freigesetzten Spaltproduktes R-NH2 in Nanomol (Humanthrombin): 8,3 Nanomol
[4]
  Menge des durch 1 ml Humanurin pro Min. freigesetzten Spaltproduktes R-NH2 in Nanomol (Urinkallikrein): 0,49 Nanomol

## CCCC[C@@H](N)C(=O)N[C@@H](CC1CCCCC1)C(=O)N[C@@H](CCCCN)C(=O)Nc1ccc([N+](=O)[O-])cc1 [Beispiel 74, 2HBr.H-D-Nleu-CHA-Lys-pNA] (H-[dNle]-[Cha]-Lys-pNA)
[1]
  Menge des durch 1 CU-Einheit Humanplasmin pro Min. freigesetzten Spaltproduktes R-NH2 in Nanomol (Humanplasmin): 695 Nanomol
[2]
  Menge des durch 1 ml Humansputum pro Min. freigesetzten Spaltproduktes R-NH2 in Nanomol (Submandibularis-Kallikrein): 8,4 Nanomol
[3]
  Menge des durch 1 NIH-Einheit Thrombin pro Min. freigesetzten Spaltproduktes R-NH2 in Nanomol (Humanthrombin): 3,9 Nanomol
[4]
  Menge des durch 1 ml Humanurin pro Min. freigesetzten Spaltproduktes R-NH2 in Nanomol (Urinkallikrein): 0,77 Nanomol

— EP0019589A1, “Tripeptide derivatives and their use in a process for determining enzymes” (Pentapharm A.G., priority 1979, dated 1980)
